# In patent US12054447B2, “PCNA inhibitors” (City of Hope, priority 2015, dated 2024):
# “Also recorded” adds a separate entry of the source.
# How the values were obtained:
# MDA-MB-435 = test: NCI-60 panel test; assay type: cell-based; conditions: Homo sapiens; MDA-MB-435, NCI-60 5-dose study
# Method: (§1) FIG. 7. NCI-60 panel test. The effect of AOH1160 on growth of the NCI-60 panel, which consists of 60 cancer cell lines representing 9 major cancer types, was tested in a 5-dose study. Shown are the Log IC50 values determined for each cell line. […] This study was performed by the National Institute of Cancer.
# (§2) As observed in FIG. 7, the effect of AOH1160 on growth of the NCI-60 panel, which consists of 60 cancer cell lines representing 9 major cancer types, was tested in a 5-dose study. Shown are the Log IC50 values determined for each cell line.
# SK-MEL-2 = test: NCI-60 panel test; assay type: cell-based; conditions: Homo sapiens; SK-MEL-2, NCI-60 5-dose study
# Method: as §1, §2
# TK-10 = test: NCI-60 panel test; assay type: cell-based; conditions: Homo sapiens; TK-10, NCI-60 5-dose study
# Method: as §1, §2
# MALME-3M = test: NCI-60 panel test; assay type: cell-based; conditions: Homo sapiens, NCI-60 5-dose study
# Method: as §1, §2
# NCI-H322M = test: NCI-60 panel test; assay type: cell-based; conditions: Homo sapiens, NCI-60 5-dose study
# Method: as §1, §2
# COLO 205 = test: NCI-60 panel test; assay type: cell-based; conditions: Homo sapiens
# Method: as §1, §2
# SK-OV-3 = test: NCI-60 panel test; assay type: cell-based; conditions: Homo sapiens; SK-OV-3, NCI-60 5-dose study
# Method: as §1, §2
# OVCAR-5 = test: NCI-60 panel test; assay type: cell-based; conditions: Homo sapiens; OVCAR-5, NCI-60 5-dose study
# Method: as §1, §2
# OVCAR-8 = test: NCI-60 panel test; assay type: cell-based; conditions: Homo sapiens; OVCAR-8, NCI-60 5-dose study
# Method: as §1, §2
# HL-60(TB) = test: NCI-60 panel test; assay type: cell-based; conditions: Homo sapiens, NCI-60 5-dose study
# Method: as §1, §2
# A549/ATCC = test: NCI-60 panel test; assay type: cell-based; conditions: Homo sapiens, NCI-60 5-dose study
# Method: as §1, §2
# UACC-62 = test: NCI-60 panel test; assay type: cell-based; conditions: Homo sapiens; UACC-62, NCI-60 5-dose study
# Method: as §1, §2
# DU-145 = test: NCI-60 panel test; assay type: cell-based; conditions: Homo sapiens; DU-145, NCI-60 5-dose study
# Method: as §1, §2
# MDA-MB-231/ATCC = test: NCI-60 panel test; assay type: cell-based; conditions: Homo sapiens, NCI-60 5-dose study
# Method: as §1, §2
# EKVX = test: NCI-60 panel test; assay type: cell-based; conditions: Homo sapiens, NCI-60 5-dose study
# Method: as §1, §2
# RXF 393 = test: NCI-60 panel test; assay type: cell-based; conditions: Homo sapiens; RXF 393, NCI-60 5-dose study
# Method: as §1, §2
# HOP-92 = test: NCI-60 panel test; assay type: cell-based; conditions: Homo sapiens; HOP-92, NCI-60 5-dose study
# Method: as §1, §2
# MOLT-4 = test: NCI-60 panel test; assay type: cell-based; conditions: Homo sapiens; MOLT-4, NCI-60 5-dose study
# Method: as §1, §2
# ACHN = test: NCI-60 panel test; assay type: cell-based; conditions: Homo sapiens, NCI-60 5-dose study
# Method: as §1, §2
# SF-295 = test: NCI-60 panel test; assay type: cell-based; conditions: Homo sapiens; SF-295, NCI-60 5-dose study
# Method: as §1, §2
# MDA-MB-468 = test: NCI-60 panel test; assay type: cell-based; conditions: Homo sapiens; MDA-MB-468, NCI-60 5-dose study
# Method: as §1, §2
# SN12C = test: NCI-60 panel test; assay type: cell-based; conditions: Homo sapiens, NCI-60 5-dose study
# Method: as §1, §2
# HCC-2998 = test: NCI-60 panel test; assay type: cell-based; conditions: Homo sapiens; HCC-2998, NCI-60 5-dose study
# Method: as §1, §2
# SW-620 = test: NCI-60 panel test; assay type: cell-based; conditions: Homo sapiens; SW-620, NCI-60 5-dose study
# Method: as §1, §2
# SF-268 = test: NCI-60 panel test; assay type: cell-based; conditions: Homo sapiens
# Method: as §1, §2
# RPMI-8226 = test: NCI-60 panel test; assay type: cell-based; conditions: Homo sapiens; RPMI-8226, NCI-60 5-dose study
# Method: as §1, §2
# PC-3 = test: NCI-60 panel test; assay type: cell-based; conditions: Homo sapiens; PC-3, NCI-60 5-dose study
# Method: as §1, §2
# IGROV1 = test: NCI-60 panel test; assay type: cell-based; conditions: Homo sapiens, IGROV-1; IGROV1, NCI-60 5-dose study
# Method: as §1, §2
# OVCAR-4 = test: NCI-60 panel test; assay type: cell-based; conditions: Homo sapiens; OVCAR-4, NCI-60 5-dose study
# Method: as §1, §2
# MCF7 = test: NCI-60 panel test; assay type: cell-based; conditions: Homo sapiens; MCF7, NCI-60 5-dose study
# Method: as §1, §2
# HCT-116 = test: NCI-60 panel test; assay type: cell-based; conditions: Homo sapiens; HCT-116, NCI-60 5-dose study
# Method: as §1, §2
# T-47D = test: NCI-60 panel test; assay type: cell-based; conditions: Homo sapiens, T47D, NCI-60 5-dose study
# Method: as §1, §2
# HCT-15 = test: NCI-60 panel test; assay type: cell-based; conditions: Homo sapiens; HCT-15, NCI-60 5-dose study
# Method: as §1, §2
# Liver microsome assay = assay type: in vitro ADME, human; conditions: NADPH dependent metabolism
# Description: FIG. 11. AOH1160 stability in a liver microsome assay. Liver is a major organ responsible for drug metabolism. We tested the stability of AOH1160 in a liver microsome assay. By analyzing the metabolites, we determined a major pathway responsible for AOH1160 metabolism.
# Liver is a major organ responsible for drug metabolism. We tested the stability of AOH1160 in a liver microsome assay (FIG. 11). By analyzing the metabolites, we determined a major pathway responsible for AOH1160 metabolism.
compound,measurement,setting,value
COc1cccc(Oc2ccccc2NC(=O)CNC(=O)c2cccc3ccccc23)c1 [PCNA7/ AOH1996],GI50,MDA-MB-435,70.8 nM
same,GI50,SK-MEL-2,182 nM
same,GI50,TK-10,1580 nM
same,GI50,MALME-3M,17 µM
same,GI50,NCI-H322M,1290 nM
same,GI50,COLO 205,282 nM
same,GI50,SK-OV-3,490 nM
same,GI50,OVCAR-5,1120 nM
same,GI50,OVCAR-8,692 nM
same,GI50,HL-60(TB),81.3 nM
same,GI50,A549/ATCC,316 nM
same,GI50,UACC-62,209 nM
same,GI50,DU-145,708 nM
same,GI50,MDA-MB-231/ATCC,776 nM
same,GI50,EKVX,1290 nM
same,GI50,RXF 393,166 nM
same,GI50,HOP-92,204 nM
same,GI50,MOLT-4,661 nM
same,GI50,ACHN,398 nM
same,GI50,SF-295,112 nM
same,GI50,MDA-MB-468,331 nM
same,GI50,SN12C,1450 nM
same,GI50,HCC-2998,1260 nM
same,GI50,SW-620,166 nM
same,GI50,SF-268,550 nM
same,GI50,RPMI-8226,955 nM
same,GI50,PC-3,282 nM
same,GI50,IGROV1,1050 nM
same,GI50,OVCAR-4,776 nM
same,GI50,MCF7,100 nM
same,GI50,HCT-116,95.5 nM
same,GI50,T-47D,138 nM
same,GI50,HCT-15,129 nM
same,stability in a liver microsome assay,Liver microsome assay,stable to NADPH dependent metabolism; also recorded: stable in a liver microsome assay
